Source: patent publication US6737383B1, “Herbicidal oxadiazolidines” (priority 1999, dated 2004)

What was measured:
[1] = test system: surinam grass; assay: Test B pre/postemergence surinam grass; format: in vivo, Brachiaria decumbens
Outline: (§1)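 Test chemicals in a non-phytotoxic solvent mixture with surfactant were sprayed preemergence onto planted seeds and postemergence onto plants 2 to 18 cm tall (1- to 4-leaf stage). After twelve to sixteen days in a greenhouse, injury was visually rated against untreated controls from 0 (no effect) to 10 (complete control).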

[2] = test system: rice; assay: Test B flood test rice; format: in vivo, Oryza sativa
Outline: (§2)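 Read-out is a visual response score from 0 (no effect) to 10 (complete control), assigned by comparison with untreated controls. Treatment was applied at the 2-leaf stage, and plants stayed in the greenhouse for twelve to sixteen days before scoring.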

[3] = test system: blackgrass; assay: Test B pre/postemergence blackgrass; format: in vivo, Alopecurus myosuroides
Outline: as §1

[4] = test system: purple nutsedge; assay: Test B pre/postemergence purple nutsedge; format: in vivo, Cyperus rotundus; settings: for Plant response rating, Nutsedge: scale of 0 to 10 where 0 is no effect and 10 is complete control
Outline: as §1

[5] = test system: bamyardgrass; assay: Test B flood test barnyardgrass; format: in vivo, Echinochloa crus-galli
Outline: as §2

[6] = test system: giant foxtail; assay: Test B pre/postemergence giant foxtail; format: in vivo, Setaria faberii
Outline: as §1

[7] = test system: wheat; assay: Test B pre/postemergence wheat; format: in vivo, Triticum aestivum; settings: for Plant response rating, Wheat: scale of 0 to 10 where 0 is no effect and 10 is complete control
Outline: as §1

[8] = test system: soybean; assay: Test B pre/postemergence soybean; format: in vivo, Glycine max; settings: for Plant response rating, Soybean: scale of 0 to 10 where 0 is no effect and 10 is complete control
Outline: as §1

[9] = test system: wild oat; assay: Test B pre/postemergence wild oat; format: in vivo, Avena fatua; settings: for Plant response rating, Wild oats: scale of 0 to 10 where 0 is no effect and 10 is complete control
Outline: as §1

[10] = test system: corn; assay: Test B pre/postemergence corn; format: in vivo, Zea mays
Outline: as §1

[11] = test system: rape; assay: Test B pre/postemergence rape; format: in vivo, Brassica napus; settings: for Plant response rating, Rape: scale of 0 to 10 where 0 is no effect and 10 is complete control
Outline: as §1

[12] = test system: pigweed; assay: Test B pre/postemergence pigweed; format: in vivo, Amaranthus retroflexus; settings: for Plant response rating, Redroot pigweed: scale of 0 to 10 where 0 is no effect and 10 is complete control
Outline: as §1

[13] = test system: smallflower flatsedge; assay: Test B flood test smallflower flatsedge; format: in vivo, Cyperus difformis
Outline: as §2

[14] = test system: morningglory; assay: Test B pre/postemergence morningglory; format: in vivo, Ipomoea hederacea; settings: for Plant response rating, Morningglory: scale of 0 to 10 where 0 is no effect and 10 is complete control
Outline: as §1

[15] = test system: cocklebur; assay: Test B pre/postemergence cocklebur; format: in vivo, Xanthium strumarium
Outline: as §1

[16] = test system: duck salad; assay: Test B flood test duck salad; format: in vivo, Heteranthera limosa
Outline: as §2

[17] = test system: velvetleaf; assay: Test B pre/postemergence velvetleaf; format: in vivo, Abutilon theophrasti; settings: for Plant response rating, Velvetleaf: scale of 0 to 10 where 0 is no effect and 10 is complete control
Outline: as §1

[18] = test system: sugar beet; assay: Test B pre/postemergence sugar beet; format: in vivo, Beta vulgaris; settings: for Plant response rating, Sugarbeets: scale of 0 to 10 where 0 is no effect and 10 is complete control
Outline: as §1

[19] = test system: crabgrass; assay: Test B pre/postemergence crabgrass; format: in vivo, Digitaria sanguinalis
Outline: as §1

[20] = Postemergence, Rate 500 g/ha, scale of 0 to 10 where 0 is no effect and 10 is complete control
[21] = Preemergence, Rate 62 g/ha, scale of 0 to 10 where 0 is no effect and 10 is complete control
[22] = Preemergence, Rate 125 g/ha, scale of 0 to 10 where 0 is no effect and 10 is complete control
[23] = Preemergence, Rate 250 g/ha, scale 0 to 10, 0 is no effect, 10 is complete control
[24] = Preemergence, Rate 500 g/ha, scale 0 to 10, 0 is no effect, 10 is complete control
[25] = Rate 62 g/ha, Postemergence, scale 0 to 10 (0 no effect, 10 complete control)
[26] = Rate 125 g/ha, Postemergence, scale 0 to 10, 0 is no effect, 10 is complete control
[27] = Rate 62 g/ha, flood test species, Pre-emergence, visual evaluation after twelve to sixteen days
[28] = Rate 125 g/ha, under heading Pre-emergence, flood test species, visual evaluation after twelve to sixteen days
[29] = Rate 250 g/ha, Pre-emergence (flood test species), scale 0 to 10, 0 is no effect, 10 is complete control
[30] = Rate 500 g/ha, Pre-emergence, flood test species, scale 0 to 10 (0 no effect, 10 complete control)
[31] = Postemergence, Rate 250 g/ha, scale 0 to 10

## CC(C)N(C(=O)n1oc(=O)n(C(CF)CF)c1=O)c1ccc(Cl)cc1 [Compound 468]
[1]; Postemergence, Rate 250 g/ha, scale 0 to 10, 0 no effect, 10 complete control
  B. signalgrass plant response rating: 0
[1]; [20]
  B. signalgrass plant response rating: 0
[1]; [21]
  Plant response rating, B. signalgrass: 0
[1]; [22]
  Plant response rating, B. signalgrass: 2
[1]; [23]
  B. signalgrass plant response rating: 3
[1]; [24]
  B. signalgrass plant response rating: 4
[1]; [25]
  B. signalgrass plant response rating: 0
[1]; [26]
  B. signalgrass plant response rating: 0
[2]; [27]
  Plant response rating, Rice (0 to 10 scale, 0 is no effect, 10 is complete control): 0
[2]; [28]
  Rice plant response rating (0 to 10 scale, 0 is no effect, 10 is complete control): 0
[2]; [29]
  Rice plant response rating: 0
[2]; [30]
  Rice plant response rating: 0
[3]; [31]
  Blackgrass plant response rating: 7
[3]; [20]
  Blackgrass plant response rating: 8
[3]; [21]
  Plant response rating, Blackgrass: 3
[3]; [22]
  Plant response rating, Blackgrass: 4
[3]; [23]
  Blackgrass plant response rating: 5
[3]; [24]
  Blackgrass plant response rating: 9
[3]; [25]
  Blackgrass plant response rating: 0
[3]; [26]
  Blackgrass plant response rating: 5
[4]; [31]
  Nutsedge plant response rating: 0
[4]; Preemergence, Rate 62 g/ha
  Plant response rating, Nutsedge: 0
[4]; Preemergence, Rate 125 g/ha
  Plant response rating, Nutsedge: 0
[4]; [23]
  Nutsedge plant response rating: 0
[4]; [24]
  Nutsedge plant response rating: 0
[4]; [25]
  Nutsedge plant response rating: 0
[4]; [26]
  Nutsedge plant response rating: 0
[5]; [27]
  Plant response rating, Barnyardgrass (0 to 10 scale, 0 is no effect, 10 is complete control): 0
[5]; [28]
  Barnyardgrass plant response rating (0 to 10 scale, 0 is no effect, 10 is complete control): 0
[5]; [29]
  Barnyardgrass plant response rating: 0
[5]; [30]
  Barnyardgrass plant response rating: 0
[6]; [31]
  Giant foxtail plant response rating: 9
[6]; [20]
  Giant foxtail plant response rating: 9
[6]; [21]
  Plant response rating, Giant foxtail: 6
[6]; [22]
  Plant response rating, Giant foxtail: 8
[6]; [23]
  Giant foxtail plant response rating: 9
[6]; [24]
  Giant foxtail plant response rating: 10
[6]; [25]
  Giant foxtail plant response rating: 1
[6]; [26]
  Giant foxtail plant response rating: 3
[7]; [31]
  Wheat plant response rating: 0
[7]; Preemergence, Rate 62 g/ha
  Plant response rating, Wheat: 0
[7]; Preemergence, Rate 125 g/ha
  Plant response rating, Wheat: 0
[7]; [23]
  Wheat plant response rating: 0
[7]; [24]
  Wheat plant response rating: 6
[7]; [25]
  Wheat plant response rating: 0
[7]; [26]
  Wheat plant response rating: 0
[8]; [31]
  Soybean plant response rating: 1
[8]; Preemergence, Rate 62 g/ha
  Plant response rating, Soybean: 0
[8]; Preemergence, Rate 125 g/ha
  Plant response rating, Soybean: 0
[8]; [23]
  Soybean plant response rating: 0
[8]; [24]
  Soybean plant response rating: 0
[8]; [25]
  Soybean plant response rating: 1
[8]; [26]
  Soybean plant response rating: 1
[9]; [31]
  Wild oats plant response rating: 0
[9]; Preemergence, Rate 62 g/ha
  Plant response rating, Wild oats: 0
[9]; Preemergence, Rate 125 g/ha
  Plant response rating, Wild oats: 0
[9]; [23]
  Wild oats plant response rating: 3
[9]; [24]
  Wild oats plant response rating: 7
[9]; [25]
  Wild oats plant response rating: 0
[9]; [26]
  Wild oats plant response rating: 0
[10]; [31]
  Corn plant response rating: 0
[10]; [20]
  Corn plant response rating: 0
[10]; [21]
  Plant response rating, Corn: 0
[10]; [22]
  Plant response rating, Corn: 0
[10]; [23]
  Corn plant response rating: 0
[10]; [24]
  Corn plant response rating: 2
[10]; [25]
  Corn plant response rating: 0
[10]; [26]
  Corn plant response rating: 0
[11]; [31]
  Rape plant response rating: 0
[11]; Preemergence, Rate 62 g/ha
  Plant response rating, Rape: 0
[11]; Preemergence, Rate 125 g/ha
  Plant response rating, Rape: 0
[11]; [23]
  Rape plant response rating: 3
[11]; [24]
  Rape plant response rating: 6
[11]; [25]
  Rape plant response rating: 0
[11]; [26]
  Rape plant response rating: 0
[12]; [31]
  Redroot pigweed plant response rating: 4
[12]; Preemergence, Rate 62 g/ha
  Plant response rating, Redroot pigweed: 0
[12]; Preemergence, Rate 125 g/ha
  Plant response rating, Redroot pigweed: 4
[12]; [23]
  Redroot pigweed plant response rating: 8
[12]; [24]
  Redroot pigweed plant response rating: 10
[12]; [25]
  Redroot pigweed plant response rating: 0
[12]; [26]
  Redroot pigweed plant response rating: 2
[13]; [27]
  Plant response rating, S. Flatsedge (0 to 10 scale, 0 is no effect, 10 is complete control): 0
[13]; [28]
  S. Flatsedge plant response rating (0 to 10 scale, 0 is no effect, 10 is complete control): 0
[13]; [29]
  S. Flatsedge plant response rating: 0
[13]; [30]
  S. Flatsedge plant response rating: 0
[14]; [31]
  Morningglory plant response rating: 4
[14]; Preemergence, Rate 62 g/ha
  Plant response rating, Morningglory: 0
[14]; Preemergence, Rate 125 g/ha
  Plant response rating, Morningglory: 0
[14]; [23]
  Morningglory plant response rating: 0
[14]; [24]
  Morningglory plant response rating: 2
[14]; [25]
  Morningglory plant response rating: 2
[14]; [26]
  Morningglory plant response rating: 3
[15]; [31]
  Cocklebur plant response rating: 2
[15]; [20]
  Cocklebur plant response rating: 4
[15]; [21]
  Plant response rating, Cocklebur: 0
[15]; [22]
  Plant response rating, Cocklebur: 0
[15]; [23]
  Cocklebur plant response rating: 0
[15]; [24]
  Cocklebur plant response rating: 0
[15]; [25]
  Cocklebur plant response rating: 0
[15]; [26]
  Cocklebur plant response rating: 0
[16]; [27]
  Plant response rating, Ducksalad (0 to 10 scale, 0 is no effect, 10 is complete control): 0
[16]; [28]
  Ducksalad plant response rating (0 to 10 scale, 0 is no effect, 10 is complete control): 0
[16]; [29]
  Ducksalad plant response rating: 0
[16]; [30]
  Ducksalad plant response rating: 0
[17]; [31]
  Velvetleaf plant response rating: 2
[17]; Preemergence, Rate 62 g/ha
  Plant response rating, Velvetleaf: 0
[17]; Preemergence, Rate 125 g/ha
  Plant response rating, Velvetleaf: 0
[17]; [23]
  Velvetleaf plant response rating: 1
[17]; [24]
  Velvetleaf plant response rating: 4
[17]; [25]
  Velvetleaf plant response rating: 0
[17]; [26]
  Velvetleaf plant response rating: 0
[18]; [31]
  Sugarbeets plant response rating: 0
[18]; Preemergence, Rate 62 g/ha
  Plant response rating, Sugarbeets: 0
[18]; Preemergence, Rate 125 g/ha
  Plant response rating, Sugarbeets: 0
[18]; [23]
  Sugarbeets plant response rating: 2
[18]; [24]
  Sugarbeets plant response rating: 6
[18]; [25]
  Sugarbeets plant response rating: 0
[18]; [26]
  Sugarbeets plant response rating: 0
[19]; [31]
  Crabgrass plant response rating: 9
[19]; [20]
  Crabgrass plant response rating: 9
[19]; [21]
  Plant response rating, Crabgrass: 9
[19]; [22]
  Plant response rating, Crabgrass: 9
[19]; [23]
  Crabgrass plant response rating: 9
[19]; [24]
  Crabgrass plant response rating: 9
[19]; [25]
  Crabgrass plant response rating: 3
